Common to all, as to assay: Determination of MIC values (BHI broth, 96 well microtiter plate)
Holding throughout (type): cell-based

Assay [1] deals with vancomycin-resistant Enterococcus spp. (VRE). As to conditions: VREF, BHI broth, overnight 37° C.; for MIC: Enterococcus, VRE, read-out: MIC VREF. The gist of the method: (§1)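 BHI broth microdilution; final compound 25, 12.5, 6.25, 3.125, 1.56, 0.78, 0.39, 0 µg/mL (1% DMSO). Inoculum 10^5–10^6 cells/mL; 37° C, ~7-10% CO2, ~16 h. MIC = lowest concentration, no observable growth.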

The next assay relates to Streptococcus pneumoniae. The following applies: Streptococcus pneumoniae; S. pneu; BHI broth, overnight 37° C.; read-out: MIC S. pneu. The gist of the method: as §1
Assay [2] deals with methicillin-resistant Staphylococcus aureus (MRSA). As to conditions: MRSA, BHI broth, overnight 37° C.; for MIC: Staphylococcus aureus, read-out: MIC MRSA. The gist of the method: as §1

A value given as a limit tells only on which side of the number the result lay.

We go through 34 molecules from patent US6376670B1, “Quinoline-indole antimicrobial agents, uses and compositions related thereto” (Sepracor Inc., priority 1997, dated 2002).

`NCC1CCCC(CNC(=O)c2cc(-c3c[nH]c4ccc(Br)cc34)nc3cc(F)ccc23)C1` (stereo not drawn) [Example 298]: the “MIC VREF” value in assay [1] was less than 7 µg/mL. In addition, the MIC in the assay with Streptococcus pneumoniae was less than 7 µg/mL. For the same molecule, the “MIC MRSA” value in assay [2] is less than 7 µg/mL.
On to `NCc1ccc(CNC(=O)c2cc(-c3c[nH]c4ccc(Br)cc34)nc3cc(C#CCNCCc4ccc(Cl)cc4)ccc23)cc1` [Example 300], for which the minimum inhibitory concentration (MIC) in assay [1] was less than 7 µg/mL; with Streptococcus pneumoniae, less than 25 µg/mL; in assay [2], less than 7 µg/mL.
`NCc1ccc(CNC(=O)c2cc(-c3c[nH]c4ccc(Br)cc34)nc3c(C#CCNCCc4ccc(Cl)cc4)cccc23)cc1` [Example 301]: the MIC in assay [1] was less than 25 µg/mL; with Streptococcus pneumoniae, less than 25 µg/mL; in assay [2], less than 7 µg/mL.
For the molecule `Brc1ccc2[nH]cc(-c3nc4ccc(I)cc4c4c3CCO4)c2c1` [Example 303], the results for the minimum inhibitory concentration (MIC) (in assay [1]; with Streptococcus pneumoniae; in assay [2]) were more than 25 µg/mL, less than 7 µg/mL and less than 7 µg/mL, respectively.
Regarding `NCc1ccc(CNC(=O)c2cc(-c3c[nH]c4ccc(Br)cc34)nc3cc(C#CCN4CC=CCC4)ccc23)cc1` [Example 304], the MIC (in assay [1]; in the assay on Streptococcus pneumoniae; in assay [2]) was less than 7 µg/mL throughout.
On to `NCc1ccc(CNC(=O)c2cc(-c3c[nH]c4ccc(Br)cc34)nc3c(C#CCN4CC=CCC4)cccc23)cc1` [Example 305], for which the MIC (in assay [1]; in the assay on Streptococcus pneumoniae; in assay [2]) was less than 7 µg/mL each time.
As for `NCc1ccc(CNC(=O)c2cc(-c3c[nH]c4ccc(Br)cc34)c3ccccc3n2)cc1` [Example 306], the MIC (in assay [1]; in the assay with Streptococcus pneumoniae; in assay [2]) was less than 7 µg/mL throughout.
As for `COC(=O)c1cc(-c2cn(C)c3ccc(Br)cc23)nc2cc(F)ccc12` [Example 309], the MIC (in assay [1]; in the assay on Streptococcus pneumoniae; in assay [2]) was more than 25 µg/mL in each case.
Consider `Cn1cc(-c2cc(C(=O)O)c3ccc(F)cc3n2)c2cc(Br)ccc21` [Example 310], for which the MIC is more than 25 µg/mL in assay [1], less than 25 µg/mL with Streptococcus pneumoniae and less than 25 µg/mL in assay [2].
In the case of `NCc1cccc(CNC(=O)c2cc(-c3cc4cc(Cl)ccc4[nH]3)nc3cc(I)ccc23)c1` [Example 311], the MIC (in assay [1]; in the assay with Streptococcus pneumoniae; in assay [2]) was more than 25 µg/mL throughout.
Take `NCCNC(=O)c1cc(-c2c[nH]c3ccc(Cl)cc23)nc2cc(Br)ccc12` [Example 312]: the MIC (in assay [1]; with Streptococcus pneumoniae; in assay [2]) was less than 7 µg/mL each time.
For the molecule `NCCNC(=O)c1cc(-c2c[nH]c3ccc(Cl)cc23)nc2ccc(Br)cc12` [Example 313], the MIC (in assay [1]; in the assay on Streptococcus pneumoniae; in assay [2]) was less than 7 µg/mL throughout.
Consider `NCCNC(=O)c1cc(-c2c[nH]c3ccc(Br)cc23)nc2c(Cl)cc(I)cc12` [Example 314], for which the MIC (in assay [1]; in the assay with Streptococcus pneumoniae; in assay [2]) was less than 7 µg/mL each time.
With `NCCNC(=O)c1cc(-c2c[nH]c3ccc(Br)cc23)nc2c(Br)cccc12` [Example 315], the MIC (in assay [1]; in the assay on Streptococcus pneumoniae; in assay [2]) was less than 7 µg/mL in each case.
As to `NCCNC(=O)c1cc(-c2c[nH]c3ccc(Br)cc23)nc2c(Cl)cccc12` [Example 318], the MIC (in assay [1]; in the assay on Streptococcus pneumoniae; in assay [2]) was less than 7 µg/mL throughout.
In the case of `NCCNC(=O)c1cc(-c2c[nH]c3ccc(Br)cc23)nc2c(F)cccc12` [Example 319], the MIC in assay [1] was less than 25 µg/mL; in the assay with Streptococcus pneumoniae, less than 7 µg/mL; in assay [2], less than 7 µg/mL.
On to `NCCNC(=O)c1cc(-c2c[nH]c3ccc(Br)cc23)nc2cc(F)ccc12` [Example 321], for which the MIC (in assay [1]; in the assay on Streptococcus pneumoniae; in assay [2]) was less than 7 µg/mL throughout.
As to `NCCNC(=O)c1cc(-c2c[nH]c3ccc(Cl)cc23)nc2c(Br)cccc12` [Example 322], the MIC (in assay [1]; in the assay with Streptococcus pneumoniae; in assay [2]) was less than 7 µg/mL in each case.
On to `Cn1cc(-c2cc(C(=O)NCCN)c3ccc(F)cc3n2)c2cc(Br)ccc21` [Example 325], for which the MIC (in assay [1]; in the assay with Streptococcus pneumoniae; in assay [2]) was less than 7 µg/mL throughout.
On to `Cn1cc(-c2cc(C(=O)NCC3CCC(CN)CC3)c3ccc(F)cc3n2)c2cc(Br)ccc21` (stereo not drawn) [Example 326], for which the MIC (in assay [1]; in the assay on Streptococcus pneumoniae; in assay [2]) was less than 7 µg/mL each time.
For `Cn1cc(-c2cc(C(=O)NCc3cccc(CN)c3)c3ccc(F)cc3n2)c2cc(Br)ccc21` [Example 327], the MIC was more than 25 µg/mL in assay [1], less than 7 µg/mL in the assay with Streptococcus pneumoniae and less than 25 µg/mL in assay [2].
`Cn1cc(-c2cc(C(=O)NCc3ccc(CN)cc3)c3ccc(I)cc3n2)c2cc(Br)ccc21` [Example 328]: the results for the MIC (in assay [1]; with Streptococcus pneumoniae; in assay [2]) were more than 25 µg/mL, less than 7 µg/mL and more than 25 µg/mL, respectively.
Regarding `Cn1cc(-c2cc(C(=O)NCc3cccc(CN)c3)c3ccc(I)cc3n2)c2cc(Br)ccc21` [Example 330], the MIC (in assay [1]; in the assay with Streptococcus pneumoniae; in assay [2]) was less than 7 µg/mL in each case.
With `Cn1cc(-c2cc(C(=O)NCC3CCC(CN)CC3)c3ccc(I)cc3n2)c2cc(Br)ccc21` (stereo not drawn) [Example 331], the MIC (in assay [1]; in the assay on Streptococcus pneumoniae; in assay [2]) was less than 7 µg/mL throughout.
In the case of `Cn1cc(-c2cc(C(=O)NCC3CCCC(CN)C3)c3ccc(I)cc3n2)c2cc(Br)ccc21` (stereo not drawn) [Example 332], the MIC (in assay [1]; in the assay with Streptococcus pneumoniae; in assay [2]) was less than 7 µg/mL throughout.
Take `Cn1cc(-c2cc(C(=O)NC3CCC(N)CC3)c3ccc(I)cc3n2)c2cc(Br)ccc21` (stereo not drawn) [Example 333]: the minimum inhibitory concentration (MIC) (in assay [1]; in the assay on Streptococcus pneumoniae; in assay [2]) was less than 7 µg/mL in each case.
`NCc1cccc(CNC(=O)c2cc(-c3c[nH]c4ccc(Br)cc34)nc3cc(Br)ccc23)n1` [Example 334]: the MIC (in assay [1]; with Streptococcus pneumoniae; in assay [2]) was less than 7 µg/mL throughout.
In the case of `OCc1cc(-c2c[nH]c3ccc(Br)cc23)nc2cc(Br)ccc12` [Example 335], the MIC (in assay [1]; with Streptococcus pneumoniae; in assay [2]) was less than 7 µg/mL each time.
For `CCOC(=O)n1cc(-c2cc(C(=O)NCc3ccc(CN)cc3)c3cc(C#CCN4CCCCC4)ccc3n2)c2cc(Br)ccc21` [Example 337], the MIC (in assay [1]; in the assay on Streptococcus pneumoniae; in assay [2]) was more than 25 µg/mL throughout.
For `Fc1cccc2[nH]cc(-c3cc(Cl)c4ccccc4n3)c12` [Example 338], the minimal inhibitory concentration (MIC) was more than 25 µg/mL in assay [1], less than 7 µg/mL with Streptococcus pneumoniae and less than 25 µg/mL in assay [2].
For the molecule `Fc1ccc2[nH]cc(-c3cc(Cl)c4ccccc4n3)c2c1` [Example 339], the MIC (in assay [1]; in the assay with Streptococcus pneumoniae; in assay [2]) was less than 7 µg/mL each time.
Take `Fc1ccc2c(-c3cc(Cl)c4ccccc4n3)c[nH]c2c1` [Example 340]: the MIC (in assay [1]; with Streptococcus pneumoniae; in assay [2]) was less than 7 µg/mL in each case.
Regarding `Clc1cc(-c2c[nH]c3cccc(Cl)c23)nc2ccccc12` [Example 341], the MIC (in assay [1]; with Streptococcus pneumoniae; in assay [2]) was less than 7 µg/mL in each case.
Consider `Clc1ccc2c(-c3cc(Cl)c4ccccc4n3)c[nH]c2c1` [Example 343], for which the MIC in assay [1] was more than 25 µg/mL; in the assay on Streptococcus pneumoniae it was less than 7 µg/mL; in assay [2], less than 7 µg/mL.
